Measurements: PubChem BioAssay AID1963829 (Molecular Pharmacology Branch, DTP, NCI, 2024)

Tested on: 935938-334-R-J1-PDC complex spheroid viability
Assay: Anticancer human tumor 935938-334-R-J1-PDC patient-derived small intestine adenocarcinoma cell line growth inhibition [POLQ]
Conditions: for IC50: curve of first compound; for viability, T/C: stronger effect = lower value; active = viability on the fitted dose curve at most 10% of control; inactive = the rest
How it was run: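 Patient-derived tumour cells were co-cultured with HUVEC and mesenchymal stem cells as multicellular spheroids at 37 °C. They were treated with POLQ inhibitors (novobiocin, ART-558, RP6685) alone or combined with other agents. Top concentrations were at or near clinical Cmax (otherwise 10 microM; SN-38 at 1 microM), decreasing in half-log steps.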
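Note: spheroids exposed to drugs for seven days before viability read.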
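Throughout, for viability, T/C: 100% = DMSO vehicle control wells.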

CC1COCCN1c1cc(-c2ccnn2C)c2ccnc(-c3ccn[nH]3)c2n1 (configuration not stated) + Nc1ccc(C#CCN(C(=O)Cc2ncc(C(F)(F)F)cc2C(F)(F)F)c2ccc(F)cc2)nn1
0.0866 µM: IC50 (second compound 3.16 µM)
0.0862 µM: IC50 (second compound 0.316 µM)
inactive: viability, T/C (second compound 0.0316 µM, first compound 0.0316 µM) 92.4% | viability, T/C (second compound 0.0316 µM, first compound 0.1 µM) 32.2% | viability, T/C (second compound 0.0316 µM, first compound 0.316 µM) 19.1% | viability, T/C (second compound 0.0316 µM, first compound 1 µM) 15.3% | viability, T/C (second compound 0.0316 µM, first compound 3.16 µM) 14.8% | viability, T/C (second compound 0.0316 µM, first compound 10 µM) 17.6% | viability, T/C (second compound 0.1 µM, first compound 0.0316 µM) 89.4% | viability, T/C (second compound 0.1 µM, first compound 0.1 µM) 43.9% | viability, T/C (second compound 0.1 µM, first compound 0.316 µM) 18.5% | viability, T/C (second compound 0.1 µM, first compound 1 µM) 13.6% | viability, T/C (second compound 0.1 µM, first compound 3.16 µM) 21.2% | viability, T/C (second compound 0.1 µM, first compound 10 µM) 19.4% | viability, T/C (second compound 0.316 µM, first compound 0.0316 µM) 117% | viability, T/C (second compound 0.316 µM, first compound 0.1 µM) 40% | viability, T/C (second compound 0.316 µM, first compound 0.316 µM) 17.4% | viability, T/C (second compound 0.316 µM, first compound 1 µM) 13.3% | viability, T/C (second compound 0.316 µM, first compound 3.16 µM) 18.7% | viability, T/C (second compound 0.316 µM, first compound 10 µM) 22% | viability, T/C (second compound 1 µM, first compound 0.0316 µM) 103% | viability, T/C (second compound 1 µM, first compound 0.1 µM) 40.2% | viability, T/C (second compound 1 µM, first compound 0.316 µM) 20.2% | viability, T/C (second compound 1 µM, first compound 1 µM) 16.3% | viability, T/C (second compound 1 µM, first compound 3.16 µM) 16.8% | viability, T/C (second compound 1 µM, first compound 10 µM) 21.2% | viability, T/C (second compound 3.16 µM, first compound 0.0316 µM) 91.7% | viability, T/C (second compound 3.16 µM, first compound 0.1 µM) 44% | viability, T/C (second compound 3.16 µM, first compound 0.316 µM) 15.5% | viability, T/C (second compound 3.16 µM, first compound 1 µM) 16.1% | viability, T/C (second compound 3.16 µM, first compound 3.16 µM) 19.2% | viability, T/C (second compound 3.16 µM, first compound 10 µM) 27.6% | viability, T/C (second compound 10 µM, first compound 0.0316 µM) 93.4% | viability, T/C (second compound 10 µM, first compound 0.1 µM) 46.3% | viability, T/C (second compound 10 µM, first compound 0.316 µM) 19.4% | viability, T/C (second compound 10 µM, first compound 1 µM) 18.4% | viability, T/C (second compound 10 µM, first compound 3.16 µM) 19.3% | viability, T/C (second compound 10 µM, first compound 10 µM) 21.1%
0.0715 µM: IC50 (second compound 0.0316 µM)
0.0838 µM: IC50 (second compound 1 µM)
0.0856 µM: IC50 (second compound 0.1 µM)
0.0915 µM: IC50 (second compound 10 µM)
